What is called MIC is the lowest concentration found to suppress growth. A lower MIC goes with inhibition by little substance.

Values after ≈ are worked out from the molar mass of the structure shown.

Consider 16 compounds from ChEMBL document CHEMBL1921693, “Efficient synthesis and in vitro antitubercular activity of 1,2,3-triazoles as inhibitors of Mycobacterium tuberculosis” (2011).

In the first experiment the test system is Mycobacterium tuberculosis. The experiment in a line: Ratio of ethambutol MIC to compound MIC for Mycobacterium tuberculosis H37Rv. It counts as functional.
Turning to `CCOC(=O)c1nnn(CC(=O)c2ccc(Br)cc2)c1C(=O)OCC`, the Ratio is 2.08.

The next experiment has as its system Mycobacterium tuberculosis. Kind of experiment: Antituberculosis activity against Mycobacterium tuberculosis H37Rv by agar dilution method. It counts as functional.
In turn, `CCOC(=O)c1nnn(CC(=O)c2ccc(Br)cc2)c1C(=O)OCC` displayed an MIC of 1.56 µg/mL (≈ 3.8 µM).
In the case of `CCOC(=O)Cn1nnc(C(=O)OCC)c1C(=O)OCC`, the MIC is over 25 µg/mL.
Same read-out and setting: as for `NNC(=O)c1ccncc1` [ISONIAZID], the figure is 0.75 µg/mL (≈ 5.47 µM); as for `COC(=O)c1nnn(Cc2ccccc2)c1C(=O)OC`, 25 µg/mL (≈ 90.8 µM).
Same read-out and setting: as for `COC(=O)c1nnn(CC(=O)c2ccc(Br)cc2)c1C(=O)OC`, the figure is 3.13 µg/mL (≈ 8.19 µM).
`COC(=O)c1nnn(CC(=O)c2ccccc2)c1C(=O)OC`: it took 12.5 µg/mL (≈ 41.2 µM) to inhibit growth (MIC).
The same measure, in the same setting: as for `CCOC(=O)c1nnn(CC(=O)c2ccc(Cl)cc2)c1C(=O)OCC`, the figure is 3.13 µg/mL (≈ 8.56 µM).
Same read-out and setting: as for `CCOC(=O)c1nnn(Cc2ccccc2)c1C(=O)OCC`, the figure is 12.5 µg/mL (≈ 41.2 µM); as for `COC(=O)Cn1nnc(C(=O)OC)c1C(=O)OC`, over 25 µg/mL.
On to `COC(=O)c1nnn(CC(=O)c2ccc(OC)cc2)c1C(=O)OC`, for which the MIC came to 12.5 µg/mL (≈ 37.5 µM).
As to `CCOC(=O)c1nnn(CC(=O)OC)c1C(=O)OCC`, the MIC was over 25 µg/mL.
Regarding `CCOC(=O)c1nnn(CC(=O)c2ccccc2)c1C(=O)OCC`, the MIC was found to be 3.13 µg/mL (≈ 9.45 µM).
Same read-out and setting: as for `CC[C@@H](CO)NCCN[C@@H](CC)CO` [ETHAMBUTOL], the figure is 3.25 µg/mL (≈ 15.9 µM); as for `COC(=O)c1nnn(CC(=O)c2ccc(Cl)cc2)c1C(=O)OC`, 6.25 µg/mL (≈ 18.5 µM); as for `CCOC(=O)Cn1nnc(C(=O)OC)c1C(=O)OC`, over 25 µg/mL.
Still for that read-out and setting: as for `CCOC(=O)c1nnn(CC(=O)c2ccc(OC)cc2)c1C(=O)OCC`, the figure is 6.25 µg/mL (≈ 17.3 µM).
